# According to patent publication US20140066394A1, “Substituted 6-(Benzylamino) Purine Riboside Derivatives, Use Thereof and Compositions Containing These Derivatives” (Biopatterns, S.R.O, priority 2009, published 2014):
# How the values were obtained:
# [1] = test system: human umbilical vein endothelial cells (HUVEC); test: Neutrophil mediated damage to endothelial cells (HUVEC viability, trypan blue); type: cell-based; parameters: death of HUVEC treated with TNF-primed neutrophils: dose or concentration left out as unconfirmed
# Protocol: HUVEC were cultured to confluence in tissue culture plates and incubated overnight with neutrophils treated with 20 ng/ml TNFα (+TNF),
# […] Viable cells remain attached to the plastic wells and are visualised by phase contrast light microscopy. The image shown is representative of 3 separate experiments.
# (§1) ANCA are predominantly IgG autoantibodies directed against constituents of primary granules of neutrophils (PR3 and MPO). ANCA associated vasculitis is the most common primary systemic small-vessel vasculitis in adults. The common pathology of this disease is focal necrotizing lesions of blood vessels and may affect different vessels and organs. […] Neutrophils were cultured for 10 hours in RPMI1640 medium containing 2% human AB serum, 2 mM L-glutamine and antibiotics (100 U/ml penicillin, […] streptomycin) and their apoptosis determined by staining with Giemsa stain and observing an apoptotic morphology by light microscopy. […] The ability of compound 10 to inhibit ANCA-induced neutrophil inflammatory functions was also determined Neutrophils were cultured in RPMI1640 medium containing 2% human AB serum, 2 mM L-glutamine and antibiotics (100 U/ml penicillin, […] streptomycin). […] ANCA stimulated degranulation of neutrophils was assessed by release of myeloperoxidase in to the medium over a 30 minute period, with MPO measured by ELISA. […]
# [2] = test system: Peripheral blood neutrophils; test: Neutrophil apoptosis, Giemsa stain and light microscopy; type: cell-based; settings: Homo sapiens, 20 hours culture, read-out: IC50 of inhibition of neutrophil apoptosis
# Protocol: Neutrophils were cultured at 2×10^6 cells/ml for 20 h in RPMI1640 medium containing human serum and antibiotics and a range of concentrations of compound 10. Apoptosis was determined by differential Giemsa staining and light microscopy to determine cells with an apoptotic nuclear morphology. Data are mean±SD of 5 separate experiments.
# Effects of the compounds on neutrophil apoptosis were also determined as an indication of utility in diseases where their survival is dysregulated such as systemic vasculitis and chronic inflammatory disease. Peripheral blood neutrophils were cultured for 20 hours in RPMI1640 medium containing 2% human AB serum, 2 mM L-glutamine and antibiotics (100 U/ml penicillin, […] streptomycin) and their apoptosis determined by staining with Giemsa stain and observing an apoptotic morphology by light microscopy (see Pongracz J et al. 1999, J. Biol. Chem. 274: 37329-37334). Compound 10 inhibited neurophil apoptosis with an IC50 of 1 μM (FIG. 4).
# [3] = test system: neutrophils; test: ANCA-induced neutrophil superoxide generation, lucigenin based assay; type: cell-based, human; settings: single concentration 10 μM, 10 minute period (FIG. 11)
# Protocol: FIG. 11 Inhibition of ANCA induced neutrophil ROS production by compound 10. Neutrophils were cultured at 2×10^6 cells/ml in RPMI1640 medium containing human serum antibiotics and 20 ng/ml TNFα for 10 minutes prior to addition of ANCA and a range of concentrations of compound 10. Generation of superoxide was determined over a 10 minute period using a lucigenin based assay. The area under the curve was calculated to give superoxide generation over the whole assay period.
# as §1, with “adults.” for “adults. The common pathology of this disease is focal necrotizing lesions of blood vessels and may affect different vessels and organs.”
structure (smiles),measurement,setting,value
"COc1cccc(CNc2nc(Cl)nc3c2ncn3C2OC(CO)C(O)C2O)c1O (stereo not shown) [Compound 10, 2-Chloro-6-(2-hydroxy-3-methoxybenzylamino)purine riboside]",HUVEC cell death in the presence of ANCA,"[1]; ANCA-activated TNF primed-neutrophils, 24 h (90% without compound)",50%
same,death of HUVEC treated with TNF-primed neutrophils,"[1]; overnight / 24 h, without ANCA",completely block the death of HUVEC
same,IC50,[2],1000 nM
same,ANCA-induced superoxide generation,[3],completely inhibited ANCA-induced superoxide generation
